Measurements as given in patent US10821115B2, “Compounds that inhibit Mcl-1 protein” (priority 2017, dated 2020).
Where two headings read alike, the source gives them in different places.

Key:
[1] = biological target: recombinant human Mcl-1 (residues 171-327) / Bim interaction (Homo sapiens (Human), UniProt Q07820); assay: biochemical; format: binding; details: read-out: Mcl-1 HTRF IC50
[2] = system: human multiple myeloma cell line, OPM-2; assay: Cell viability assay (OPM-2 10 FBS), CellTiter-Glo; format: cell-based
How it was run: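 OPM-2 cells at 3000 cells/well in RPMI 1640 with 10% FBS were exposed to serially diluted compounds for 16 h at 37 °C, 5% CO2.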

[3] = 0.1 nM Mcl-1(171-327), 0.05 nM biotin-Bim (51-76)
[4] = Homo sapiens, OPM-2, 16 h, read-out: OPM-2 10% FBS IC50 IP, OPM-2 cells, 10% FBS, 16 h incubation
[5] = TR-FRET, Mcl-1(171-327) / biotin-Bim (51-76)
[6] = Homo sapiens, OPM-2, 16 h, read-out: OPM-2 10% FBS IC50 IP, OPM-2 cells, 10% FBS, 16 h, CellTiter-Glo

recombinant human Mcl-1 (residues 171-327) / Bim interaction, sequence (Q07820 171-327): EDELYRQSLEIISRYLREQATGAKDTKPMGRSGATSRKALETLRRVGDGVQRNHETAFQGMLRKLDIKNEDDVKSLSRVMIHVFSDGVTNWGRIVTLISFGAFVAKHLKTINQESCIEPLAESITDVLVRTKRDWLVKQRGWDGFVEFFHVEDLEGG

CO[C@@]1(CN2CCN(C(C)(C)C)CC2)/C=C/C[C@H](C)[C@@H](C)S(=O)(=O)NC(=O)c2ccc3c(c2)N(C[C@@H]2CC[C@H]21)C[C@@]1(CCCc2cc(Cl)ccc21)CO3 [Example 335, (1S,3′R,6′R,7′S,8′E,11′S,12′R)-7′-((4-tert-butyl-1-piperazinyl)methyl)-6-chloro-7′-methoxy-11′,12′-dimethyl-3,4-dihydro-2H,15′H-spiro[naphthalene-1,22′-[20]oxa[13]thia[1,14]diazatetracyclo [14.7.2.0~3,6~.0~19,24~]pentacosa[8,16,18,24]tetraen]-15′-one 13′,13′-dioxide]
IC50 [1, 3]: 0.148 nM
IC50 [2, 4]: 133 nM

CO[C@]1(CN2CCN3CCCC[C@@H]3C2)/C=C/C[C@H](C)[C@@H](C[C@H](C)O)S(=O)(=O)NC(=O)c2ccc3c(c2)N(C[C@@H]2CC[C@H]21)C[C@@]1(CCCc2cc(Cl)ccc21)CO3 (single isomer, unassigned) [Example 363]
IC50 [1, 3]: 0.08 nM
IC50 ([2]; read-out: OPM-2 10% FBS IC50 IP, OPM-2 cells, 10% FBS, 16 h incubation): 101 nM

CO[C@@]1(CC(=O)c2ccccn2)/C=C/C[C@H](C)[C@@H](C)S(=O)(=O)NC(=O)c2ccc3c(c2)N(C[C@@H]2CC[C@H]21)C[C@@]1(CCCc2cc(Cl)ccc21)CO3 [Example 100491, (1S,3′R,6′R,7′S,8′E,11′S,12′R)-6-chloro-7′-methoxy-11′,12′-dimethyl-7′-(2-oxo-2-(2-pyridinyl)ethyl)-3,4-dihydro-2H,15′H-spiro[naphthalene-1,22′-[20]oxa[13]thia[1,14]diazatetracyclo [14.7.2.0~3,6~.0~19,24~]pentacosa[8,16,18,24]tetraen]-15′-one 13′,13′-dioxide]
IC50 [1, 5]: 0.208 nM
IC50 [2, 6]: 308 nM

COC[C@@H]1[C@@H](C)C/C=C/[C@@](CN2CCN3CCOC[C@@H]3C2)(OC)[C@@H]2CC[C@H]2CN2C[C@@]3(CCCc4cc(Cl)ccc43)COc3ccc(cc32)C(=O)NS1(=O)=O [Example 184, (1S,3′R,6′R,7′R,8′E,11′S,12′S)-6-chloro-7′-((9aS)-hexahydropyrazino[2,1-c][1,4]oxazin-8(1H)-ylmethyl)-7′-methoxy-12′-(methoxymethyl)-11′-methyl-3,4-dihydro-2H,15′H-spiro[naphthalene-1,22′-[20]oxa[13]thia[1,14]diazatetracyclo [14.7.2.0~3,6~.0~19,24~]pentacosa[8,16,18,24]tetraen]-15′-one 13′,13′-dioxide]
IC50 [1, 3]: 0.068 nM
IC50 [2, 4]: 17 nM

CO[C@@]1([C@@H](C)O)CCC[C@H](C)[C@@H](C)S(=O)(=O)NC(=O)c2ccc3c(c2)N(C[C@@H]2CC[C@H]21)C[C@@]1(CCCc2cc(Cl)ccc21)CO3 [Example 100483, (1S,3′R,6′R,7′S,11′S,12′R)-6-chloro-7′-((1R)-1-hydroxyethyl)-7′-methoxy-11′,12′-dimethyl-3,4-dihydro-2H,15′H-spiro[naphthalene-1,22′-[20]oxa[13]thia[1,14]diazatetracyclo [14.7.2.0~3,6~.0~19,24~]pentacosa[16,18,24]trien]-15′-one 13′,13′-dioxide]
IC50 [1, 5]: 1.66 nM
IC50 [2, 6]: 1690 nM

CC(=O)N[C@@]1(C#N)CCC[C@H](C)[C@@H](C)S(=O)(=O)NC(=O)c2ccc3c(c2)N(C[C@@H]2CC[C@H]21)C[C@@]1(CCCc2cc(Cl)ccc21)CO3 [Example 100263, N-((1S,3′R,6′R,7′S,11′S,12′R)-6-chloro-7′-cyano-11′,12′-dimethyl-13′,13′-dioxido-15′-oxo-3,4-dihydro-2H-spiro[naphthalene-1,22′-[20]oxa[13]thia[1,14]diazatetracyclo [14.7.2.0~3,6~.0~19,24~]pentacosa[16,18,24]trien]-7′-yl)acetamide]
IC50 [1, 5]: 1.83 nM
IC50 [2, 6]: 3390 nM

CO[C@]1(CN2CCN3CCCC[C@@H]3C2)/C=C/[C@H](C)[C@H](C)CS(=O)(=O)NC(=O)c2ccc3c(c2)N(C[C@@H]2CC[C@H]21)C[C@@]1(CCCc2cc(Cl)ccc21)CO3 [Example 161, (1S,3′R,6′R,7′R,8′E,10′S,11′S)-6-chloro-7′-methoxy-10′,11′-dimethyl-7′-((9aR)-octahydro-2H-pyrido[1,2-a]pyrazin-2-ylmethyl)-3,4-dihydro-2H,15′H-spiro[naphthalene-1,22′-[20]oxa[13]thia[1,14]diazatetracyclo [14.7.2.0~3,6~.0~19,24~]pentacosa[8,16,18,24]tetraen]-15′-one 13′,13′-dioxide]
IC50 [1, 3]: 0.094 nM
IC50 [2, 4]: 113 nM

COCCN1CCN(C[C@]2(OC)/C=C/C[C@H](C)[C@@H](C)S(=O)(=O)NC(=O)c3ccc4c(c3)N(C[C@@H]3CC[C@H]32)C[C@@]2(CCCc3cc(Cl)ccc32)CO4)CC1 [Example 195, (1S,3′R,6′R,7′S,8′E,11′S,12′R)-6-chloro-7′-methoxy-7′-((4-(2-methoxyethyl)-1-piperazinyl)methyl)-11′,12′-dimethyl-3,4-dihydro-2H,15′H-spiro[naphthalene-1,22′-[20]oxa[13]thia[1,14]diazatetracyclo [14.7.2.0~3,6~.0~19,24~]pentacosa[8,16,18,24]tetraen]-15′-one 13′,13′-dioxide]
IC50 [1, 3]: 0.214 nM
IC50 [2, 4]: 65 nM

C=CCC[C@@]1(O)/C=C/C[C@H](C)[C@@H](C)S(=O)(=O)NC(=O)c2ccc3c(c2)N(C[C@@H]2CC[C@H]21)C[C@@]1(CCCc2cc(Cl)ccc21)CO3 [Example 100157, (1S,3′R,6′R,7′R,8′E,11′S,12′R)-7′-(3-buten-1-yl)-6-chloro-7′-hydroxy-11′,12′-dimethyl-3,4-dihydro-2H,15′H-spiro[naphthalene-1,22′-[20]oxa[13]thia[1,14]diazatetracyclo [14.7.2.0~3,6~.0~19,24~]pentacosa[8,16,18,24]tetraen]-15′-one 13′,13′-dioxide]
IC50 [1, 5]: 4.81 nM
IC50 ([2]; read-out: OPM-2 10% FBS IC50 IP, OPM-2 cells, 10% FBS, 16 h, CellTiter-Glo): 3210 nM

COC[C@]1(O)/C=C/C[C@H](C)[C@@H](C)S(=O)(=O)NC(=O)c2ccc3c(c2)N(C[C@@H]2CC[C@H]21)C[C@@]1(CCCc2cc(Cl)ccc21)CO3 [Example 100378, (1S,3′R,6′R,7′S,8′E,11′S,12′R)-6-chloro-7′-hydroxy-7′-(methoxymethyl)-11′,12′-dimethyl-3,4-dihydro-2H,15′H-spiro[naphthalene-1,22′-[20]oxa[13]thia[1,14]diazatetracyclo [14.7.2.0~3,6~.0~19,24~]pentacosa[8,16,18,24]tetraen]-15′-one 13′,13′-dioxide]
IC50 [1, 5]: 0.037 nM
IC50 [2, 6]: 111 nM

CO[C@]1(CN2CCN(C3CCC3)CC2)/C=C/C[C@H](C)[C@@H](C)S(=O)(=O)NC(=O)c2ccc3c(c2)N(C[C@@H]2CC[C@H]21)C[C@@]1(CCCc2cc(Cl)ccc21)CO3 [Example 92, (1S,3′R,6′R,7′R,8′E,11′S,12′R)-6-chloro-7′-((4-cyclobutyl-1-piperazinyl)methyl)-7′-methoxy-11′,12′-dimethyl-3,4-dihydro-2H,15′H-spiro[naphthalene-1,22′-[20]oxa[13]thia[1,14]diazatetracyclo [14.7.2.0~3,6~.0~19,24~]pentacosa[8,16,18,24]tetraen]-15′-one 13′,13′-dioxide]
IC50 [1, 3]: 0.143 nM
IC50 [2, 4]: 199 nM

CC#C[C@@]1(O)/C=C/C[C@H](C)[C@@H](C)S(=O)(=O)NC(=O)c2ccc3c(c2)N(C[C@@H]2CC[C@H]21)C[C@@]1(CCCc2cc(Cl)ccc21)CO3 [Example 100498, (1S,3′R,6′R,7′R,8′E,11′S,12′R)-6-chloro-7′-hydroxy-11′,12′-dimethyl-7′-(1-propyn-1-yl)-3,4-dihydro-2H,15′H-spiro[naphthalene-1,22′-[20]oxa[13]thia[1,14]diazatetracyclo [14.7.2.0~3,6~.0~19,24~]pentacosa[8,16,18,24]tetraen]-15′-one 13′,13′-dioxide]
IC50 [1]: 0.885 nM
IC50 [2, 6]: 1660 nM

CC#C[C@]1(O)/C=C/C[C@H](C)[C@@H](C)S(=O)(=O)NC(=O)c2ccc3c(c2)N(C[C@@H]2CC[C@H]21)C[C@@]1(CCCc2cc(Cl)ccc21)CO3 [Example 100499, (1S,3′R,6′R,7′S,8′E,11′S,12′R)-6-chloro-7′-hydroxy-11′,12′-dimethyl-7′-(1-propyn-1-yl)-3,4-dihydro-2H,15′H-spiro[naphthalene-1,22′-[20]oxa[13]thia[1,14]diazatetracyclo [14.7.2.0~3,6~.0~19,24~]pentacosa[8,16,18,24]tetraen]-15′-one 13′,13′-dioxide]
IC50 [1]: 0.509 nM
IC50 [2, 6]: 1120 nM

CO[C@]1(CN2CCN(C(C)C)C(=O)C2)/C=C/C[C@H](C)[C@@H](C)S(=O)(=O)NC(=O)c2ccc3c(c2)N(C[C@@H]2CC[C@H]21)C[C@@]1(CCCc2cc(Cl)ccc21)CO3 [Example 323, (1S,3′R,6′R,7′R,8′E,11′S,12′R)-6-chloro-7′-methoxy-11′,12′-dimethyl-7′-((4-(1-methylethyl)-3-oxo-1-piperazinyl)methyl)-3,4-dihydro-2H,15′H-spiro[naphthalene-1,22′-[20]oxa[13]thia[1,14]diazatetracyclo [14.7.2.0~3,6~.0~19,24~]pentacosa[8,16,18,24]tetraen]-15′-one 13′,13′-dioxide]
IC50 [1, 3]: 0.166 nM
IC50 [2, 4]: 169 nM

C[C@@H]1[C@@H](C)C/C=C/[C@@](O)(c2cnc(Cl)n2C)[C@@H]2CC[C@H]2CN2C[C@@]3(CCCc4cc(Cl)ccc43)COc3ccc(cc32)C(=O)NS1(=O)=O (single isomer, unassigned) [Example 100551]
IC50 [1, 5]: 0.174 nM
IC50 [2, 6]: 142 nM
